# From ChEMBL document CHEMBL3763146 (J Med Chem, 2016)
# Assays:
# [1] = Intrinsic clearance in rhesus monkey liver microsomes; format: ADME, Macaca mulatta; conditions: read-out: CLH
# [2] = Plasma clearance in dog at 0.5 mg/kg, iv or 2 mg/kg, po; format: ADME, organism-based, Canis lupus familiaris
# [3] = system: Hepatocyte; assay: Increase in CYP3A4 mRNA expression in human hepatocytes up to 10 uM; format: ADME, cell-based
# [4] = Plasma clearance in rhesus monkey at 0.5 mg/kg, iv or 2 mg/kg, po; format: ADME, organism-based, Macaca mulatta
# [5] = biological target: Voltage-gated inwardly rectifying potassium channel KCNH2 (Homo sapiens, UniProt Q12809); assay: Binding affinity to human ERG channel
# Chain of Voltage-gated inwardly rectifying potassium channel KCNH2 (Q12809 whole entry): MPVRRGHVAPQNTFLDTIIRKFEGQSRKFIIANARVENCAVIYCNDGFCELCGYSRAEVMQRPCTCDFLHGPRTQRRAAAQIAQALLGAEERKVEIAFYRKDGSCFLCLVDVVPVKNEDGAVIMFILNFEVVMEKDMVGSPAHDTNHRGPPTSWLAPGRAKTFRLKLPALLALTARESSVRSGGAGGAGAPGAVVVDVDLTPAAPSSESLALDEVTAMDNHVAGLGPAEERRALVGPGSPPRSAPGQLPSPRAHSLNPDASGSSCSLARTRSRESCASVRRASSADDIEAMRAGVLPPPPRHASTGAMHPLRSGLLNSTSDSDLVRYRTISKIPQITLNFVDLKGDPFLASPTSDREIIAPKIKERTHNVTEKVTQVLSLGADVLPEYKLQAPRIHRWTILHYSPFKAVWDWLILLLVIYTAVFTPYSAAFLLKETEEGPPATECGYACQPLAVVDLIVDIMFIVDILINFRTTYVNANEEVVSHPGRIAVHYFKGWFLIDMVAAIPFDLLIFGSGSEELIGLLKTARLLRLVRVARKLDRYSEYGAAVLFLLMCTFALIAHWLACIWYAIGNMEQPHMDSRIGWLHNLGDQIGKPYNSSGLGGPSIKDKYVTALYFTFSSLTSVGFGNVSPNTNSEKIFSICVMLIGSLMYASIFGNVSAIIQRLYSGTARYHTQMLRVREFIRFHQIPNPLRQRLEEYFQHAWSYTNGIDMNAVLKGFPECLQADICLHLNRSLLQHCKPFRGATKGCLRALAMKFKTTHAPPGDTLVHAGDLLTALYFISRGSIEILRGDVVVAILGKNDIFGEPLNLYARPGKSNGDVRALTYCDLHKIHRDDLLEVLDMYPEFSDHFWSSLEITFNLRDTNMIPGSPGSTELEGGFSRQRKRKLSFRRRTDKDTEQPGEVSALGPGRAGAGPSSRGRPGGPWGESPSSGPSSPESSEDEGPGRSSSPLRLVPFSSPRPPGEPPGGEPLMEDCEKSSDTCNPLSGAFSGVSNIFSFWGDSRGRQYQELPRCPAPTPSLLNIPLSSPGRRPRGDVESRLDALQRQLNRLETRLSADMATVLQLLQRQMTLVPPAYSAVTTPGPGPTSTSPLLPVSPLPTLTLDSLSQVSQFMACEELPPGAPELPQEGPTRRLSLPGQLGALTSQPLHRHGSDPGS
# [6] = Distribution coefficient, logD of the compound at pH 7.4; format: physicochemical; conditions: octanol/water
# [7] = biological target: Voltage-dependent L-type calcium channel subunit alpha-1C (Homo sapiens, UniProt Q13936); assay: Displacement of [3H]-diltiazem from human Cav1.2 channel
# [8] = Oral bioavailability in rat at 2 mg/kg; format: ADME, organism-based; conditions: in vivo
# [9] = Fraction unbound in rhesus monkey at 0.5 mg/kg, iv or 2 mg/kg, po; format: ADME, organism-based, Macaca mulatta; conditions: in vivo
# [10] = Half life in dog at 0.5 mg/kg, iv or 2 mg/kg, po; format: ADME, organism-based, Canis lupus familiaris; conditions: in vivo
# [11] = Solubility of the compound in fed-simulated intestinal fluid; format: ADME; conditions: fed-state simulated intestinal fluid
# [12] = Fraction unbound in cynomolgus monkey at 0.5 mg/kg, iv or 2 mg/kg, po; format: ADME, organism-based, Macaca fascicularis; conditions: in vivo
# [13] = Half life in cynomolgus monkey at 0.5 mg/kg, iv or 2 mg/kg, po; format: ADME, organism-based, Macaca fascicularis; conditions: in vivo
# [14] = system: Rhesus monkey; assay: Dose normalized fAUC in rhesus monkey at 2 mg/kg, po; format: ADME, organism-based, Macaca mulatta; conditions: in vivo
# [15] = biological target: T1, Cytochrome P450 3A4 (Homo sapiens, UniProt P08684); assay: Inhibition of CYP3A4 in human liver microsomes assessed as testosterone 6beta-hydroxylation; format: ADME
# T1 sequence (P08684 whole entry): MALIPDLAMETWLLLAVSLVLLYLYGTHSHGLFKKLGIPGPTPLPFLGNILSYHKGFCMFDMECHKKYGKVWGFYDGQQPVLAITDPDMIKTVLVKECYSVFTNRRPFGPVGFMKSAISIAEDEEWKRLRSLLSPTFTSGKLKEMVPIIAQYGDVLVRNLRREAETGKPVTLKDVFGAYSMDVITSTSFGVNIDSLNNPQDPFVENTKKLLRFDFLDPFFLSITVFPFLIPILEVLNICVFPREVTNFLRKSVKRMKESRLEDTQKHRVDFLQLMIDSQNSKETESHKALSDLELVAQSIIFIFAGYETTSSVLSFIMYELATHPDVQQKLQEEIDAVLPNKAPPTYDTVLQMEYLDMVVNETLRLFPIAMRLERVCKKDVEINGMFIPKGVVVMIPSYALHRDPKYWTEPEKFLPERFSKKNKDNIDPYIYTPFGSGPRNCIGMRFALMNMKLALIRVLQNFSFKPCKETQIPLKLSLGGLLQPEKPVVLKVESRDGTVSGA
# [16] = system: Canis familiaris; assay: Dose normalized fAUC in dog at 2 mg/kg, po; format: ADME, organism-based, Canis lupus familiaris; conditions: in vivo
# [17] = biological target: Beta-1 adrenergic receptor (Homo sapiens, UniProt P08588)
# Description: Displacement of [125]I-cyanopindolol from recombinant human beta1 adrenergic receptor after 1 hr by scintillation counting method
# [18] = Stability in rat plasma assessed as parent compound remaining at 24 hrs by LC-MS analysis; format: ADME, cell-free; conditions: read-out: Stability
# [19] = biological target: Nuclear receptor subfamily 1 group I member 2 (Homo sapiens, UniProt O75469); assay: Activation of human PX receptor
# Chain of Nuclear receptor subfamily 1 group I member 2 (O75469 whole entry): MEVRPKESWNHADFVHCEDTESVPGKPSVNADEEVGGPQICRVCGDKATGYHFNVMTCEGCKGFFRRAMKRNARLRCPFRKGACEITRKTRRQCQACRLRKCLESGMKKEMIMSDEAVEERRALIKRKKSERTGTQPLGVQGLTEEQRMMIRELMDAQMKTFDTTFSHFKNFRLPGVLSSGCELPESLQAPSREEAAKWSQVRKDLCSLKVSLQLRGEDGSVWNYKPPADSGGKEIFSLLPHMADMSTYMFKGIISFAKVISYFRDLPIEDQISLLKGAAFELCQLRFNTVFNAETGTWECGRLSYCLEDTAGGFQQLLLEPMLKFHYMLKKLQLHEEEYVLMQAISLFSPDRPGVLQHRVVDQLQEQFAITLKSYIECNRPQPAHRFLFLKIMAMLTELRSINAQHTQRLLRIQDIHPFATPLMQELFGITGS
# [20] = biological target: Beta-3 adrenergic receptor (Macaca mulatta, UniProt Q28524); assay: Agonist activity at rhesus monkey beta3 adrenergic receptor expressed in CHO cells assessed as accumulation of cAMP after 30 mins by TR-FRET assay; format: functional, cell-based
# [21] = biological target: Beta-3 adrenergic receptor (Rattus norvegicus, UniProt P26255); assay: Agonist activity at rat beta3 adrenergic receptor expressed in CHO cells assessed as accumulation of cAMP after 30 mins by TR-FRET assay; format: functional, cell-based
# Chain of Beta-3 adrenergic receptor (Rattus norvegicus, UniProt P26255) (P26255 whole entry): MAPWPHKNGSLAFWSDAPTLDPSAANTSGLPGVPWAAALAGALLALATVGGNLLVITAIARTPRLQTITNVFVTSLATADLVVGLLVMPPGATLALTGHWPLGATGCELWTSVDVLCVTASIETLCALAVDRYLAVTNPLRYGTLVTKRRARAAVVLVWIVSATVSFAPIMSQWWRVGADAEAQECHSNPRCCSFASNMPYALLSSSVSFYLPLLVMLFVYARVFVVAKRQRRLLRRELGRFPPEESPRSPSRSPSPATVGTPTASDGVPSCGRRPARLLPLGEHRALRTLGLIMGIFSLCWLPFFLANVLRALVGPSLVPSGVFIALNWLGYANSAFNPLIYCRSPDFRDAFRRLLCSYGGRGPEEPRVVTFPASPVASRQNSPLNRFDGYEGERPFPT
# [22] = biological target: Beta-3 adrenergic receptor (Homo sapiens, UniProt P13945); assay: Agonist activity at human beta3 adrenergic receptor expressed in CHO cells assessed as accumulation of cAMP after 30 mins by TR-FRET assay relative to (R)-(-)-isoproterenol; format: functional, cell-based
# Chain of Beta-3 adrenergic receptor (Homo sapiens, UniProt P13945) (P13945 whole entry, looked up, the tested form may be a part): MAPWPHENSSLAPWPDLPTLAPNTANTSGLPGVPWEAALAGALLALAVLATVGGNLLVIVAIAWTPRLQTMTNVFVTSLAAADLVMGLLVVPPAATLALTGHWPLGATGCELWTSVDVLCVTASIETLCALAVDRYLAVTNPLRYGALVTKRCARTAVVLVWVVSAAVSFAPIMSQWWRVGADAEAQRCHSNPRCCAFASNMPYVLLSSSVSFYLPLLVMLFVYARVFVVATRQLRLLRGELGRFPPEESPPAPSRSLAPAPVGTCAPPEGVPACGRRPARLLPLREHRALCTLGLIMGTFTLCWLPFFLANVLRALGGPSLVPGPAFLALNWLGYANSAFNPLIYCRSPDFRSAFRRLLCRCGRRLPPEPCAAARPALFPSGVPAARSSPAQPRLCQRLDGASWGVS
# [23] = system: Rattus norvegicus; assay: Increase in detrusor muscle relaxation in iv infused Sprague-Dawley rat acetic acid-induced bladder hyperreflexia model assessed as decrease in micturition pressure measured over 30 to 45 mins; format: functional, organism-based
# [24] = system: Cynomolgus monkey; assay: Dose normalized total AUC in cynomolgus monkey at 2 mg/kg, po; format: ADME, organism-based, Macaca fascicularis; conditions: in vivo
# [25] = system: Cynomolgus monkey; assay: Dose normalized fAUC in cynomolgus monkey at 2 mg/kg, po; format: ADME, organism-based, Macaca fascicularis; conditions: in vivo
# [26] = Drug recovery in bile duct cannulated rat at 5 mg/kg, iv measured over 48 hrs; format: ADME, organism-based; conditions: in vivo, read-out: Drug recovery
# [27] = biological target: T1, Cytochrome P450 3A4; assay: Induction of CYP3A4 activity in human hepatocytes up to 10 uM; format: ADME, cell-based, Hepatocyte
# [28] = Drug recovery in bile duct cannulated rat bile at 10 mg/kg, po measured over 48 hrs; format: ADME, organism-based; conditions: read-out: Drug recovery
# [29] = Drug recovery in bile duct cannulated rat bile at 5 mg/kg, iv measured over 48 hrs; format: ADME, organism-based; conditions: read-out: Drug recovery
# [30] = biological target: Beta-3 adrenergic receptor (Canis lupus familiaris, UniProt O02662); assay: Agonist activity at dog beta3 adrenergic receptor expressed in CHO cells assessed as accumulation of cAMP after 30 mins by TR-FRET assay; format: functional, cell-based
# [31] = Stability in rhesus monkey plasma assessed as parent compound remaining at 24 hrs by LC-MS analysis; format: ADME, cell-free, Macaca mulatta; conditions: read-out: Stability
# [32] = Half life in rhesus monkey at 0.5 mg/kg, iv or 2 mg/kg, po; format: ADME, organism-based, Macaca mulatta; conditions: in vivo
# [33] = Intrinsic clearance in human liver microsomes; format: ADME; conditions: read-out: CLH
# [34] = Plasma clearance in rat at 1 mg/kg, iv or 2 mg/kg, po; format: ADME, organism-based
# [35] = system: Rattus norvegicus; assay: Increase in circulating glycerol level in iv infused Sprague-Dawley rat after 45 mins by liquid chromatography-tandem mass spectrometric analysis; format: functional
# [36] = biological target: Sodium channel protein type 2 subunit alpha (Homo sapiens, UniProt Q99250); assay: Inhibition of human Nav1.2 channel expressed in Xenopus oocytes by two-intracellular microelectrode voltage clamp method; format: cell-based
# Chain of Sodium channel protein type 2 subunit alpha (Q99250 whole entry, looked up): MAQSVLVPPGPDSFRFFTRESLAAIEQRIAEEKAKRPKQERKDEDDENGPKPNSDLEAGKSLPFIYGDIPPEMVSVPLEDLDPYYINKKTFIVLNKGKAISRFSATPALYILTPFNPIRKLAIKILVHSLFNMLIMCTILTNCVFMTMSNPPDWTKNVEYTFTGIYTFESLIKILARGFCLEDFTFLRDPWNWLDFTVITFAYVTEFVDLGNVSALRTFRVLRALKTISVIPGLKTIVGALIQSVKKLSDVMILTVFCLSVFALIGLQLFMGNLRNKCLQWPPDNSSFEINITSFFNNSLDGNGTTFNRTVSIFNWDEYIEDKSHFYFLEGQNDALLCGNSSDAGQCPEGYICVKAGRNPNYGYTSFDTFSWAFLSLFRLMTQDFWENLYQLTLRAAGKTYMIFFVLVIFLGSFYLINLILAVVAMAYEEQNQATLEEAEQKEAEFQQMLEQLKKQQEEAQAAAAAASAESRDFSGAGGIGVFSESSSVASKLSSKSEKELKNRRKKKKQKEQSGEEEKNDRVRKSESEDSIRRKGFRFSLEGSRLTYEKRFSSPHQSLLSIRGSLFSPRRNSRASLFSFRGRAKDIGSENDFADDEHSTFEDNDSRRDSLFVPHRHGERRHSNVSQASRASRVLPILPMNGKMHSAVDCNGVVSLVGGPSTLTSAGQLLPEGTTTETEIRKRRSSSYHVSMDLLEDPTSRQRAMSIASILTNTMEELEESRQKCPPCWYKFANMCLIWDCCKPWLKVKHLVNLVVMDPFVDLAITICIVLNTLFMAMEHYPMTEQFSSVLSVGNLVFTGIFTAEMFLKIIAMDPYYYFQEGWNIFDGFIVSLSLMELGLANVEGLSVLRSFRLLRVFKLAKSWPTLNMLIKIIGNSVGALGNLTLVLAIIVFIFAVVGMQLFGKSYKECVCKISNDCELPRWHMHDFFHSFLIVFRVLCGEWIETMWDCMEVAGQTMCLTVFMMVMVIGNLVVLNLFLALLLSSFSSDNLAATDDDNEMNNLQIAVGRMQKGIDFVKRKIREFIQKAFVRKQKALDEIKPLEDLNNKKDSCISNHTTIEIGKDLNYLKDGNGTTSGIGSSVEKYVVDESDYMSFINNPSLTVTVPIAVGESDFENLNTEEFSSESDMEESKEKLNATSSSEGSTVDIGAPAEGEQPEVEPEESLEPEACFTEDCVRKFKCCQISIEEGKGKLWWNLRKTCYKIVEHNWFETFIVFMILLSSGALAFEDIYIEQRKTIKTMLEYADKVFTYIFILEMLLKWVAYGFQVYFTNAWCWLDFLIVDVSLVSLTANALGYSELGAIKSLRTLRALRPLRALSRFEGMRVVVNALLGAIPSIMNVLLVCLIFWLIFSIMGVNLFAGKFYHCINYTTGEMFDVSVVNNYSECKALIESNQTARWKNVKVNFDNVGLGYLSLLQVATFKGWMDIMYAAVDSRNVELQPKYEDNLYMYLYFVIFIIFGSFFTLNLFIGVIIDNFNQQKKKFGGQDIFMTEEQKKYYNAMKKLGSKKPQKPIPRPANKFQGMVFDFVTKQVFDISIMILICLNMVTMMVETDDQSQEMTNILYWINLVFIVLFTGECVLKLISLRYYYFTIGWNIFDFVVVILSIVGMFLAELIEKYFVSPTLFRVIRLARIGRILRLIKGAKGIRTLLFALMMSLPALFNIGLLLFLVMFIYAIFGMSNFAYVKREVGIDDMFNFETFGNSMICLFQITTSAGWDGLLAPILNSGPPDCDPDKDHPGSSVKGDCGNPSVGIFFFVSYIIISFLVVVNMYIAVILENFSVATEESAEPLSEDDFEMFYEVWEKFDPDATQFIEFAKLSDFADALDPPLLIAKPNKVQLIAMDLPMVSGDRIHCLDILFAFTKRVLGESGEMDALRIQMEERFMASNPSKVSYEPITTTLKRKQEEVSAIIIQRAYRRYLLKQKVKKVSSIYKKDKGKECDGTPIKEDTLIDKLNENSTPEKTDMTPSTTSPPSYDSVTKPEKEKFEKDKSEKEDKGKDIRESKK
# [37] = system: Cynomolgus monkey; assay: Toxicity in cynomolgus monkey assessed as effect on electrocadiograms measured up to 9 months; format: organism-based, Macaca fascicularis; conditions: in vivo
# [38] = Solubility of the compound in simulated gastric fluid; format: ADME
# [39] = system: Canis familiaris; assay: Unbound clearance in dog at 0.5 mg/kg, iv or 2 mg/kg, po; format: ADME, organism-based, Canis lupus familiaris; conditions: in vivo
# [40] = system: Rattus norvegicus; assay: Increase in detrusor muscle relaxation in iv infused Sprague-Dawley rat acetic acid-induced bladder hyperreflexia model assessed as increase in functional bladder capacity measured over 30 to 45 mins; format: organism-based
# [41] = Plasma clearance in cynomolgus monkey at 0.5 mg/kg, iv or 2 mg/kg, po; format: ADME, organism-based, Macaca fascicularis
smiles,measurement,setting,value
O=C(Nc1ccc(C[C@@H]2CC[C@H]([C@H](O)c3ccccc3)N2)cc1)[C@@H]1CCc2nccc(=O)n21 [VIBEGRON],CLint scaled,[1],18 mL/min/kg
same,clearance,[2],15 mL/min/kg
same,Activity,[3],Not Active
same,clearance,[4],16 mL/min/kg
same,IC50,[5],> 30 µM
same,logD,[6],0.9
same,IC50,[7],> 30 µM
same,bioavailability,[8],20%
same,fraction unbound,[9],0.49
same,half-life,[10],13 h
same,solubility,[11],> 4000 µg/mL
same,fraction unbound,[12],0.58
same,half-life,[13],7 h
same,fAUC/dose,[14],260 nM·h/mg/kg
same,IC50,[15],> 100 µM
same,fAUC/dose,[16],490 nM·h/mg/kg
same,IC50,[17],> 20 µM
same,remaining at 24 h,[18],100%
same,EC50,[19],> 30 µM
same,EC50,[20],0.00057 µM
same,EC50,[21],0.086 µM
same,max activation,[22],84%
same,Activity,[23],Dose-dependent effect
same,AUC/dose,[24],870 nM·h/mg/kg
same,fAUC/dose,[25],500 nM·h/mg/kg
same,dose excreted at 48 h,[26],83%
same,Activity,[27],Not Active
same,dose excreted at 48 h,[28],36%
same,dose excreted at 48 h,[29],33%
same,EC50,[30],0.011 µM
same,remaining at 24 h,[31],93%
same,half-life,[32],14 h
same,CLint scaled,[33],< 10 mL/min/kg
same,clearance,[34],14 mL/min/kg
same,Activity,[35],Dose-dependent effect
same,minimal effective dose,"[35]; 0.75 h, read-out: MED",0.3 mg/kg
same,IC50,[36],> 30 µM
same,Activity,[37],Non-toxic
same,solubility,[38],> 4000 µg/mL
same,CL free,[39],37 mL/min/kg
same,Activity,[40],Dose-dependent effect
same,clearance,[41],20 mL/min/kg
